Consider five compounds from patent publication US10328082B2, “Methods of use and combinations” (Pfizer Inc., priority 2014, dated 2019).

Data set [1] concerns the target T1, human Androgen Receptor (AR) (Homo sapiens, UniProt P10275).
T1 construct: transiently transfected in T225 cm^2 flasks with a full length human Androgen Receptor (AR) cDNA; expressed in transfected cells; host or cells: CV-1 cells (ATCC CCL-70), transiently transfected
T1 sequence (P10275 1-920): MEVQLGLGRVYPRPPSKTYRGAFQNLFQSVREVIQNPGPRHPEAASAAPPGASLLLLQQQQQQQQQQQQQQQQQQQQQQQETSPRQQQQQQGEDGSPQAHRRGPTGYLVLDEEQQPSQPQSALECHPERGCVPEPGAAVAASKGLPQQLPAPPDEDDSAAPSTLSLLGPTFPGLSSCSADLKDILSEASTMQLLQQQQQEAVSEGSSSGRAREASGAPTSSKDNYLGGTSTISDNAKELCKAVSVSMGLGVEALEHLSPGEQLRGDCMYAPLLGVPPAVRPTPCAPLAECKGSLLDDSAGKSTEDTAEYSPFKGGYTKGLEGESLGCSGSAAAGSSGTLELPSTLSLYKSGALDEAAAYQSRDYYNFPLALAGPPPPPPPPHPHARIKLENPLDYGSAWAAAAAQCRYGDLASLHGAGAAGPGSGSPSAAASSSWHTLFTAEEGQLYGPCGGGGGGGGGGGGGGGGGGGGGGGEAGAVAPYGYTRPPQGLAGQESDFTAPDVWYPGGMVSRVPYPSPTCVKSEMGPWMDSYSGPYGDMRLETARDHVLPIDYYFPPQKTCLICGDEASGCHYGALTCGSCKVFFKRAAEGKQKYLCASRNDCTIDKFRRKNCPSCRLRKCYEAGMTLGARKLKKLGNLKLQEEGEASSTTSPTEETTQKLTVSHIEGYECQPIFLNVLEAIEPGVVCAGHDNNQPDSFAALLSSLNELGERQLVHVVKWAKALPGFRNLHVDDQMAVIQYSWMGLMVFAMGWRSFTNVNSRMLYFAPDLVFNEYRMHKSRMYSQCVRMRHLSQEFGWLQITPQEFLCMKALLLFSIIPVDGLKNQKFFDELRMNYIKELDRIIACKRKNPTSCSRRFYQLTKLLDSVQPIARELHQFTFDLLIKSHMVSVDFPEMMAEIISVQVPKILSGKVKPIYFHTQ
The experiment in a line: Androgen Receptor-Mediated Transcriptional Assay. In kind it is cell-based. To be noted: CV-1 cells transiently transfected with full length human AR and ARE-luciferase, 16-18 hours incubation. The method, then: Androgen Receptor-Mediated Transcriptional Assay Summary
CV-1 cells (American Tissue Culture Collection cat# CCL-70) were expanded in Growth Media and transiently transfected in T225 cm^2 flasks with a full length human Androgen Receptor (AR) cDNA in the pcDNA3 expression vector and a human Androgen Response Element (ARE)-luciferase cDNA in the pGL3 vector (both from Invitrogen). DNA (μg) and Lipofectamine (μl) at a ratio of 1:3 were incubated with the cells in a total volume of 55 mL Basal Media for 4 hours. Cells were harvested by trypsinization and frozen back (−150° C. cryomed) at a concentration of 4.3 million cells/mL.
On the day of the assay, frozen cells were thawed and re-suspended in Re-suspension Media and plated at 40,000 cells/well (in 100 μL volume) in 96 well white plates and were incubated for at least 4 h at 37° C., 5% CO2. After incubation, cells were treated with the compounds to be screened. 10 mM stocks of the compounds were serially diluted 1:10 in 100% DMSO followed by an additional 1:100 dilution in Assay Media. These dilution series were added to the cell plates resulting in a further 1:10 dilution and a final % DMSO of 0.1%. The vehicle control wells also contained this dilution of DMSO and the positive control wells contained […] (DHT) as an AR agonist at final concentration of 0.3 nM in 0.1% DMSO. Cells were incubated for 16-18 hours at 37° C. and 5% CO2. Then the culture media was removed from and the cells were lysed in 20 μL of cell lysis reagent for 5 minutes at room temperature. 50 μL of luciferase reagent was added to each well and luminescence, over 5 seconds, was measured.
EC50 (half maximal effective concentration) was calculated from concentration series plots which generated sigmoidal curves. Xlfit software was used to plot the best fit of the % effect vs concentration and to calculate the EC50.

Data set [2] can be described thus: DSC profile of the crystalline form. To be noted: demonstrated by the high DSC melting point and DSC profile. In kind it is physicochemical. The method, then: DSC measurements were performed with a Discovery DSC (TA instruments) equipped with a refrigerated cooling accessory. Approximately 2-5 mg of solid sample was weighed into a standard/Tzero aluminum pan and non-hermetically sealed. The sample was placed in a cell with continuous dry nitrogen purge (50 mL/min) and heated from 25° C. to 250° C. at 10° C./min heating rate. The cell constant was determined using indium and temperature calibration was performed using indium and tin as standards. The experimental data were analyzed using commercially available software (TA Universal Analysis 2000/Trios software, TA Instruments).
The characterization data disclosed herein confirms the crystalline nature of the 6-[(4R)-4-methyl-1,1-dioxido-1,2,6-thiadiazinan-2-yl]isoquinoline-1-carbonitrile free base Form (1) material and, as such, that it is a useful form for pharmaceutical development. For example, crystalline materials are generally considered to be an advantageous form for drug substance manufacturing because, for example, they are more easily purified, can be prepared with higher yields, have improved filtration and drying characteristics and improved flow and handling characteristics.

By EC50 is commonly meant the concentration needed to bring the measured effect to its halfway point. In data set [1] (Compounds 23-39), “6-{(2R,5R)-2-[(1R)-1-hydroxyethyl]-5-methylpyrrolidin-1-yl}isoquinoline-1-carbonitrile [Compound 31]” came in with a half-maximal effective concentration (EC50) of 474 nM. In other words, the sub-micromolar range.

“6-[(4S)-4-(3-methylphenyl)-1,1-dioxido-1,2,6-thiadiazinan-2-yl]isoquinoline-1-carbonitrile [Compound 20]” returned an EC50 in data set [1] (Compounds 1-22) of 8 nM. That is a single-digit nanomolar value.

As for “6-[(4S)-4-ethyl-1,1-dioxido-1,2,6-thiadiazinan-2-yl]isoquinoline-1-carbonitrile [Compound 21]”, the EC50 in data set [1] (Compounds 1-22) worked out at 8 nM.

Consider `C[C@H]1CN(C)S(=O)(=O)N1c1ccc2c(C#N)nccc2c1` [Compound 5], for which it took 5 nM to reach a half-maximal effect in data set [1] (Compounds 1-22) (EC50).

Consider `C[C@@H]1CNS(=O)(=O)N(c2ccc3c(C#N)nccc3c2)C1` [6-[(4R)-4-methyl-1,1-dioxido-1,2,6-thiadiazinan-2-yl]isoquinoline-1-carbonitrile], for which, in data set [2], the hygroscopic nature entry is “non-hygroscopic” and the thermal stability entry is given as “thermal stability”.
